Target: Dual specificity mitogen-activated protein kinase kinase 1 (Homo sapiens, UniProt Q02750)
Assay: Inhibition of MEK1 (unknown origin)

Dual specificity mitogen-activated protein kinase kinase 1, sequence (Q02750 whole entry): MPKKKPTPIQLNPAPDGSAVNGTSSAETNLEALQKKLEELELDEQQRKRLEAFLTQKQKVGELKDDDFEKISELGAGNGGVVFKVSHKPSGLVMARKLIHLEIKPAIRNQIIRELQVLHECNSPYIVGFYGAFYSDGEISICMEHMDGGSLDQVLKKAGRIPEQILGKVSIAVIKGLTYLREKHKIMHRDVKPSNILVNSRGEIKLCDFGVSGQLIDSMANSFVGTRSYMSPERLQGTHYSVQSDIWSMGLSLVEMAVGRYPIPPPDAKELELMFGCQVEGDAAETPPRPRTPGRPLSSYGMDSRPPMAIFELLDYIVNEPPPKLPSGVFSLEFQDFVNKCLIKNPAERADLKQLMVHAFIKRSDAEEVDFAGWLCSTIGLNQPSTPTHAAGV

IC50 [µM]	SMILES
0.12	O=C(NOCCCO)c1ccc(F)c(F)c1Nc1ccc(F)cc1F
0.0077	O=C(NOCCCO)c1ccc(F)c(F)c1Nc1ccc(Br)cc1F
0.002	O=C(NOCCCO)c1ccc(F)c(F)c1Nc1ccc(I)cc1F
0.026	O=C(NOCCCO)c1ccc(F)c(F)c1Nc1ccc(Cl)cc1F
